Compound: N[C@@H]1CCCN(c2c(/C=C3\SC(=O)NC3=O)cccc2-c2ccccc2)C1 [AZD1208] + CS(=O)(=O)CCNCc1ccc(-c2ccc3ncnc(Nc4ccc(OCc5cccc(F)c5)c(Cl)c4)c3c2)o1 [Lapatinib] (partner 2 µM)
Experiment: relative viability (nuclei count vs DMSO), 5 days (fraction); higher = more cells survive
Conditions: first compound 8 µM
Method in brief: (§1)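 The day after seeding in 1536-well plates, lung cancer cell lines were treated by pin tool with a single drug, or with a fixed anchor-drug dose together with five library-drug doses (not always all listed) in √10 steps. After 5 days, a combined fix-and-stain solution (final 0.05% Triton X-100, 1% formaldehyde, 1 ug/ml Hoechst) was added. Nuclei counted on 4× images gave relative viability as treated counts over vehicle counts, reported as the median of duplicate plates.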

**Q.** Which relative viability does the source give for HCC-15 here?
**A.** 0.831

**Q.** Which relative viability does the source give for NCI-H1793 here?
**A.** 0.58

**Q.** Which relative viability does the source give for PC-3 [JPC-3] here?
**A.** 0.389

**Q.** How did the relative viability turn out when EKVX was run?
**A.** 0.176

**Q.** How did the relative viability turn out when LC-2-ad was run?
**A.** 1.03

**Q.** Which relative viability does the source give for NCI-H1563 here?
**A.** 0.915

**Q.** With NCI-H1944 as the cell line, how does the relative viability read?
**A.** 0.484

**Q.** With NCI-H1975 as the cell line, how does the relative viability read?
**A.** 1.07

**Q.** With SK-LU-1 as the cell line, how does the relative viability read?
**A.** 0.839

**Q.** ABC-1 was tested. Which relative viability did it give?
**A.** 1.06

**Q.** How did the relative viability turn out when NCI-H358 was run?
**A.** 0.35

**Q.** Which relative viability does the source give for NCI-H661 here?
**A.** 0.46

**Q.** With RERF-LC-KJ as the cell line, how does the relative viability read?
**A.** 0.562

Compound: CN1CCN(CC1)C2=CC(=C(C=C2)NC3=NC(=C(S3)C(=O)C4=C(C=CC=C4Cl)Cl)N)OC [XMD14-99] + CS(=O)(=O)N1CCN(Cc2cc3nc(-c4cccc5[nH]ncc45)nc(N4CCOCC4)c3s2)CC1 [Pictilisib] (partner 1 µM)
Experiment: as above
Conditions: first compound 0.08 µM
Method in brief: as §1

**Q.** Which relative viability does the source give for NCI-H2347 here?
**A.** 0.519

**Q.** For NCI-H1299, which relative viability is on record?
**A.** 0.668

**Q.** NCI-H650 was tested. Which relative viability did it give?
**A.** 0.931

**Q.** CAL-12T was tested. Which relative viability did it give?
**A.** 0.397

**Q.** How did the relative viability turn out when NCI-H1651 was run?
**A.** 0.547

**Q.** EPLC-272H was tested. Which relative viability did it give?
**A.** 0.338

**Q.** Which relative viability does the source give for NCI-H23 here?
**A.** 0.46

**Q.** For NCI-H1792, which relative viability is on record?
**A.** 0.281

**Q.** Which relative viability does the source give for NCI-H1355 here?
**A.** 0.483

**Q.** Which relative viability does the source give for NCI-H322M here?
**A.** 0.514

**Q.** For NCI-H1437, which relative viability is on record?
**A.** 0.392

**Q.** NCI-H1755 was tested. Which relative viability did it give?
**A.** 0.404

**Q.** How did the relative viability turn out when NCI-H2085 was run?
**A.** 0.454

**Q.** How did the relative viability turn out when HCC-15 was run?
**A.** 0.727

**Q.** With NCI-H1793 as the cell line, how does the relative viability read?
**A.** 0.423

**Q.** How did the relative viability turn out when PC-3 [JPC-3] was run?
**A.** 0.793

**Q.** EKVX was tested. Which relative viability did it give?
**A.** 0.422

**Q.** Which relative viability does the source give for LC-2-ad here?
**A.** 0.488

**Q.** For NCI-H1563, which relative viability is on record?
**A.** 0.683

**Q.** NCI-H1944 was tested. Which relative viability did it give?
**A.** 0.325

**Q.** NCI-H1975 was tested. Which relative viability did it give?
**A.** 0.286

**Q.** How did the relative viability turn out when SK-LU-1 was run?
**A.** 0.554

**Q.** How did the relative viability turn out when ABC-1 was run?
**A.** 0.754

**Q.** With NCI-H358 as the cell line, how does the relative viability read?
**A.** 0.327

**Q.** Which relative viability does the source give for NCI-H661 here?
**A.** 0.375

**Q.** With RERF-LC-KJ as the cell line, how does the relative viability read?
**A.** 0.668

Same assay, conditions: first compound 0.8 µM

**Q.** How did the relative viability turn out when NCI-H2347 was run?
**A.** 0.871

**Q.** How did the relative viability turn out when NCI-H1299 was run?
**A.** 0.637

**Q.** How did the relative viability turn out when NCI-H650 was run?
**A.** 0.992

**Q.** Which relative viability does the source give for CAL-12T here?
**A.** 0.453

**Q.** NCI-H1651 was tested. Which relative viability did it give?
**A.** 0.521

**Q.** How did the relative viability turn out when EPLC-272H was run?
**A.** 0.338

**Q.** NCI-H23 was tested. Which relative viability did it give?
**A.** 0.547

**Q.** For NCI-H1792, which relative viability is on record?
**A.** 0.252

**Q.** Which relative viability does the source give for NCI-H1355 here?
**A.** 0.439

**Q.** How did the relative viability turn out when NCI-H322M was run?
**A.** 0.538

**Q.** NCI-H1437 was tested. Which relative viability did it give?
**A.** 0.416

**Q.** Which relative viability does the source give for NCI-H1755 here?
**A.** 0.401

**Q.** NCI-H2085 was tested. Which relative viability did it give?
**A.** 0.446

**Q.** Which relative viability does the source give for HCC-15 here?
**A.** 0.778

**Q.** NCI-H1793 was tested. Which relative viability did it give?
**A.** 0.289

**Q.** For PC-3 [JPC-3], which relative viability is on record?
**A.** 0.73

**Q.** With EKVX as the cell line, how does the relative viability read?
**A.** 0.488

**Q.** LC-2-ad was tested. Which relative viability did it give?
**A.** 0.439

**Q.** Which relative viability does the source give for NCI-H1563 here?
**A.** 0.632

**Q.** How did the relative viability turn out when NCI-H1944 was run?
**A.** 0.335

**Q.** With NCI-H1975 as the cell line, how does the relative viability read?
**A.** 0.317

**Q.** How did the relative viability turn out when SK-LU-1 was run?
**A.** 0.576

**Q.** Which relative viability does the source give for ABC-1 here?
**A.** 0.667

**Q.** Which relative viability does the source give for NCI-H358 here?
**A.** 0.301

**Q.** NCI-H661 was tested. Which relative viability did it give?
**A.** 0.322

**Q.** With RERF-LC-KJ as the cell line, how does the relative viability read?
**A.** 0.521

Same assay, conditions: first compound 2.53 µM

**Q.** Which relative viability does the source give for NCI-H2347 here?
**A.** 0.477

**Q.** Which relative viability does the source give for NCI-H1299 here?
**A.** 0.623

**Q.** For NCI-H650, which relative viability is on record?
**A.** 0.805

**Q.** CAL-12T was tested. Which relative viability did it give?
**A.** 0.334

**Q.** With NCI-H1651 as the cell line, how does the relative viability read?
**A.** 0.593

**Q.** EPLC-272H was tested. Which relative viability did it give?
**A.** 0.284

**Q.** Which relative viability does the source give for NCI-H23 here?
**A.** 0.526

**Q.** Which relative viability does the source give for NCI-H1792 here?
**A.** 0.22

**Q.** For NCI-H1355, which relative viability is on record?
**A.** 0.378

**Q.** For NCI-H322M, which relative viability is on record?
**A.** 0.495

**Q.** Which relative viability does the source give for NCI-H1437 here?
**A.** 0.34

**Q.** Which relative viability does the source give for NCI-H1755 here?
**A.** 0.426

**Q.** NCI-H2085 was tested. Which relative viability did it give?
**A.** 0.445

**Q.** With HCC-15 as the cell line, how does the relative viability read?
**A.** 0.703

**Q.** Which relative viability does the source give for NCI-H1793 here?
**A.** 0.368

**Q.** With PC-3 [JPC-3] as the cell line, how does the relative viability read?
**A.** 0.717

**Q.** For EKVX, which relative viability is on record?
**A.** 0.487

**Q.** With LC-2-ad as the cell line, how does the relative viability read?
**A.** 0.49

**Q.** How did the relative viability turn out when NCI-H1563 was run?
**A.** 0.666

**Q.** Which relative viability does the source give for NCI-H1944 here?
**A.** 0.337

**Q.** Which relative viability does the source give for NCI-H1975 here?
**A.** 0.257

**Q.** With SK-LU-1 as the cell line, how does the relative viability read?
**A.** 0.545

**Q.** Which relative viability does the source give for ABC-1 here?
**A.** 0.588

**Q.** Which relative viability does the source give for NCI-H358 here?
**A.** 0.229

**Q.** For NCI-H661, which relative viability is on record?
**A.** 0.389

**Q.** For RERF-LC-KJ, which relative viability is on record?
**A.** 0.487

Same assay, conditions: first compound 8 µM

**Q.** Which relative viability does the source give for NCI-H2347 here?
**A.** 0.431

**Q.** Which relative viability does the source give for NCI-H1299 here?
**A.** 0.505

**Q.** For NCI-H650, which relative viability is on record?
**A.** 0.72

**Q.** CAL-12T was tested. Which relative viability did it give?
**A.** 0.287

**Q.** Which relative viability does the source give for NCI-H1651 here?
**A.** 0.461

**Q.** How did the relative viability turn out when EPLC-272H was run?
**A.** 0.247

**Q.** Which relative viability does the source give for NCI-H23 here?
**A.** 0.383

**Q.** How did the relative viability turn out when NCI-H1792 was run?
**A.** 0.182

**Q.** For NCI-H1355, which relative viability is on record?
**A.** 0.327

**Q.** NCI-H322M was tested. Which relative viability did it give?
**A.** 0.476

**Q.** How did the relative viability turn out when NCI-H1437 was run?
**A.** 0.214

**Q.** With NCI-H1755 as the cell line, how does the relative viability read?
**A.** 0.295

**Q.** Which relative viability does the source give for NCI-H2085 here?
**A.** 0.482

**Q.** For HCC-15, which relative viability is on record?
**A.** 0.495

**Q.** How did the relative viability turn out when NCI-H1793 was run?
**A.** 0.333

**Q.** For PC-3 [JPC-3], which relative viability is on record?
**A.** 0.586

**Q.** How did the relative viability turn out when EKVX was run?
**A.** 0.35

**Q.** How did the relative viability turn out when LC-2-ad was run?
**A.** 0.32

**Q.** NCI-H1563 was tested. Which relative viability did it give?
**A.** 0.568

**Q.** For NCI-H1944, which relative viability is on record?
**A.** 0.269

**Q.** With NCI-H1975 as the cell line, how does the relative viability read?
**A.** 0.197

**Q.** With SK-LU-1 as the cell line, how does the relative viability read?
**A.** 0.344

**Q.** ABC-1 was tested. Which relative viability did it give?
**A.** 0.47

**Q.** For NCI-H358, which relative viability is on record?
**A.** 0.176

**Q.** With NCI-H661 as the cell line, how does the relative viability read?
**A.** 0.298

**Q.** For RERF-LC-KJ, which relative viability is on record?
**A.** 0.477

Reference: the supplement of paper PMC10307832
